Experimental data taken from ChEMBL document CHEMBL3627608, “Crystal structures of human RIP2 kinase catalytic domain complexed with ATP-competitive inhibitors: Foundations for understanding inhibitor selectivity” (Bioorg Med Chem, 2015).

Columns and labels:
[1] = molecular target: CDK6/cyclin D1 (Homo sapiens) (UniProt P24385+Q00534); experiment: Inhibition of CDK6/cyclin D1 (unknown origin) at 10 uM after 120 mins P33 radiolabeled kinase activity assay; format: protein-complex assay
[2] = molecular target: T1, Receptor-interacting serine/threonine-protein kinase 1 (Homo sapiens) (UniProt Q13546); experiment: Inhibition of RIP (unknown origin) at 10 uM after 120 mins P33 radiolabeled kinase activity assay
T1 sequence (whole entry): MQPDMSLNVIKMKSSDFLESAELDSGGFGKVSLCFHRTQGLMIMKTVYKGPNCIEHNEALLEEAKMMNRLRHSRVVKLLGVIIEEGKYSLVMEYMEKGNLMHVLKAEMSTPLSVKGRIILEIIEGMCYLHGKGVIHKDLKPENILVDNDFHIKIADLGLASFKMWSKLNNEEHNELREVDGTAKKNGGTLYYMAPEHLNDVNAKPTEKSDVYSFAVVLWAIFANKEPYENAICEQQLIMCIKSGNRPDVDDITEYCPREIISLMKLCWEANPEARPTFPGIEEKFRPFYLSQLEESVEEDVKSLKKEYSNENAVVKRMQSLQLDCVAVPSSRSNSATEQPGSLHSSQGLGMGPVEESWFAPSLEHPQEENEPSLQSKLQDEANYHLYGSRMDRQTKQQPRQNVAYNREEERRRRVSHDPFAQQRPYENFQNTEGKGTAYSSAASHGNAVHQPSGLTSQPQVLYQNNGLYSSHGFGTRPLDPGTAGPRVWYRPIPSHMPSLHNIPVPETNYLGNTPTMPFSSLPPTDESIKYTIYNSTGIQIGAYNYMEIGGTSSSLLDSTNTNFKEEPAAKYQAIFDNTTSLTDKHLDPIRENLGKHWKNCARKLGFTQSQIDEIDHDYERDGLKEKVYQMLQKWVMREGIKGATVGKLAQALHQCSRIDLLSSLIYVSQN

[3] = molecular target: T2, Protein kinase C epsilon type (Homo sapiens) (UniProt Q02156); experiment: Inhibition of PKCepsilon (unknown origin) at 10 uM after 120 mins P33 radiolabeled kinase activity assay
T2 sequence (whole entry): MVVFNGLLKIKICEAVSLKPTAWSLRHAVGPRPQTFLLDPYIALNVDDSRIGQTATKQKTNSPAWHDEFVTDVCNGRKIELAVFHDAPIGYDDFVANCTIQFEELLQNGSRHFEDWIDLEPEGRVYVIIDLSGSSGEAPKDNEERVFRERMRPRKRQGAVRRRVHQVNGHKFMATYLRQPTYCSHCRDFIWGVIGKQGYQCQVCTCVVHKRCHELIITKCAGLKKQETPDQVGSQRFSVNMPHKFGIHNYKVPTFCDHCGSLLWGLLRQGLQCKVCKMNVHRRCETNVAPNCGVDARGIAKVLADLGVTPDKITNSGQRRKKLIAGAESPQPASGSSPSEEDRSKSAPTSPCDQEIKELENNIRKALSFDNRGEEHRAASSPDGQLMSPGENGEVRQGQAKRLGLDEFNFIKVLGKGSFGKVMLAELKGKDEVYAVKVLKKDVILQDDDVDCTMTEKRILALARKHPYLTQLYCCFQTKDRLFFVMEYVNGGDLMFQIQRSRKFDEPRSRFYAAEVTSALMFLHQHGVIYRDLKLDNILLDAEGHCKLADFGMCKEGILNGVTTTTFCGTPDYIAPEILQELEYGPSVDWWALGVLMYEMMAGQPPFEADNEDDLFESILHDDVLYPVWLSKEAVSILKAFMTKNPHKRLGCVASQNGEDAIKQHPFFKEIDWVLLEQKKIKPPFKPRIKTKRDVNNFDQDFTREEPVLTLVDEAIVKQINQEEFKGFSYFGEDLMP

[4] = molecular target: T3, Homeodomain-interacting protein kinase 4 (Homo sapiens) (UniProt Q8NE63); experiment: Inhibition of HIPK4 (unknown origin) at 10 uM after 120 mins P33 radiolabeled kinase activity assay
T3 sequence (whole entry): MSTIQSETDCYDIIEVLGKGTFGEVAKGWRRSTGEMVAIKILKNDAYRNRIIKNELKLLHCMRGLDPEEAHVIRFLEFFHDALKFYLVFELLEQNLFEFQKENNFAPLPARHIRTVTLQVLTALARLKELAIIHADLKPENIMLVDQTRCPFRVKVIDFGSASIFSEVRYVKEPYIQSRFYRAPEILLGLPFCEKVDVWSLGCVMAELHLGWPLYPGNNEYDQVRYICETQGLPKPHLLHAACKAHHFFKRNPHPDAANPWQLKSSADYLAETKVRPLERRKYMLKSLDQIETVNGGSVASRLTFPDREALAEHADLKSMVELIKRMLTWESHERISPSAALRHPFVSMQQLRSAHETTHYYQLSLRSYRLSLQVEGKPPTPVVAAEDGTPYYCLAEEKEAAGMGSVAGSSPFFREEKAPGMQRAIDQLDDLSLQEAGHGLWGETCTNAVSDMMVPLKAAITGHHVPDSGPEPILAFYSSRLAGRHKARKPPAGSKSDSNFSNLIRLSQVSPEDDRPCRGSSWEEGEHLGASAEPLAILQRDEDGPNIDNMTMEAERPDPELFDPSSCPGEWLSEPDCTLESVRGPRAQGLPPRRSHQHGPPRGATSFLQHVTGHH

[5] = molecular target: Casein kinase I isoform epsilon (Homo sapiens) (UniProt P49674); experiment: Inhibition of CK1epsilon (unknown origin) at 10 uM after 120 mins P33 radiolabeled kinase activity assay
Chain of Casein kinase I isoform epsilon (Homo sapiens) (P49674 whole entry, looked up, canonical isoform): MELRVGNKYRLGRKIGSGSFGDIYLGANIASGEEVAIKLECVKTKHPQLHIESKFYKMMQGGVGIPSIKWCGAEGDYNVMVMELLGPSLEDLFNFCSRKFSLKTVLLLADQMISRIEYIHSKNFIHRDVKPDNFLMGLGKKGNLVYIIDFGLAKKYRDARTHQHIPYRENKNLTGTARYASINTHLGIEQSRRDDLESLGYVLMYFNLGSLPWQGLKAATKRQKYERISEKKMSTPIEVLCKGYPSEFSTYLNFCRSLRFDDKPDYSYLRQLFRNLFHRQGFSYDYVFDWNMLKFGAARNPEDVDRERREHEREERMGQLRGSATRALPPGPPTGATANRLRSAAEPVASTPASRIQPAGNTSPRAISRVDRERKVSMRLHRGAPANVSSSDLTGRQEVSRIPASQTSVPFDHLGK

[6] = molecular target: T4, Aurora kinase A (Homo sapiens) (UniProt O14965); experiment: Inhibition of Aurora A (unknown origin) at 10 uM after 120 mins P33 radiolabeled kinase activity assay
T4 sequence (whole entry): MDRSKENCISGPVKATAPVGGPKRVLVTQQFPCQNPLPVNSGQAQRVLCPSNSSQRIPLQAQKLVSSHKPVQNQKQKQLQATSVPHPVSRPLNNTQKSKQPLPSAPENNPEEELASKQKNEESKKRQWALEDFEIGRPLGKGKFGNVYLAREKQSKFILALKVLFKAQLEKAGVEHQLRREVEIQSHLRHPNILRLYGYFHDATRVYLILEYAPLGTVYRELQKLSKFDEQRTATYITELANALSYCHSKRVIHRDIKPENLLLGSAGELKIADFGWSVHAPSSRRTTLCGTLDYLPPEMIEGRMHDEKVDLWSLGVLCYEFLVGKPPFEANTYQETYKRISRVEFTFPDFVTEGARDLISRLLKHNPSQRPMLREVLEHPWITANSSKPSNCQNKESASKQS

inhibition [1] | inhibition [2] | inhibition [3] | inhibition [4] | inhibition [5] | inhibition [6] | SMILES
3.54% | 33.1% | 1.13% | -9.28% | 44.4% | 13.9% | COCCNC(=O)c1ccc2c(c1)nc(-c1cnc(-c3ccc(Cl)cc3)[nH]1)n2CCOC
26.4% | 54.4% | -0.59% | 97% | 36.8% | 83.4% | CS(=O)(=O)c1cccc(Nc2nccc(-c3sc(N4CCOCC4)nc3-c3cccc(NS(=O)(=O)c4c(F)cccc4F)c3)n2)c1
17.4% | 53.2% | 0.69% | 96.7% | 5.92% | 48.4% | CC(C)(C)c1cc(NC(=O)Nc2ccc(Oc3ccncc3)cc2)no1
